From EP4755888A1 (ILAb Co., Ltd., priority 2023, dated 2025)
pIC50: −log10 of the molar value.

Molecular target: PD-1/PD-L1 (Homo sapiens, UniProt Q9NZQ7)
Assay: TR-FRET PD-1/PD-L1 binding inhibition at the molecular level (free proteins)
Details: Tag1-PD-L1 and Tag2-PD-1 proteins, twelve concentrations from 200 nM, 2 hours at room temperature, read-out: FRET assay (IC50)
Outline: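 HTRF read-out at 665/620 nm after 2 h at room temperature. Detection used anti-Tag1 Eu cryptate plus anti-Tag2 XL665 antibodies. Tagged PD-L1 and PD-1 proteins were pre-mixed with compound across twelve […] 1:2 dilutions starting at 200 nM.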

Sequence of PD-1/PD-L1 (Q9NZQ7 19-238 limits assumed): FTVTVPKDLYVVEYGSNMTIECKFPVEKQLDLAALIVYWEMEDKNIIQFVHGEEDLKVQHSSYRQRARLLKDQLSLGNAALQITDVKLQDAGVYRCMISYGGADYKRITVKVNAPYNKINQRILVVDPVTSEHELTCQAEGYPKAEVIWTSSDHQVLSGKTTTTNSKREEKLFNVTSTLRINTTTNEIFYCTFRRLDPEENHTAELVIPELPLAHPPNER

Compound	pIC50
COc1nc(-c2cccc(-c3cccc(-c4cc5n(n4)CCCC5N4CC[C@@H](O)C4)c3C)c2C)cnc1CNC[C@@H]1CCC(=O)N1 (stereo partly drawn) [Compound 164, (5S)-5-((((5-(3'-(4-((R)-3-hydroxypyrrolidin-1-yl)-4,5,6,7-tetrahydropyrazolo[1,5-a]pyridin-2-yl)-2,2'-dimethyl-[1,1'-biphenyl]-3-yl)-3-methoxypyrazin-2-yl)methyl)amino)methyl)pyrrolidin-2-one]	7.00 to 8.00
COc1nc(-c2cccc(-c3cccc(-c4cc5n(n4)CCCC5N4CC[C@@H](C(=O)O)C4)c3C)c2C)cnc1CNC[C@@H]1CCC(=O)N1 (stereo partly drawn) [Compound 165, (3R)-1-(2-(3'-(6-methoxy-5-(((((S)-5-oxopyrrolidin-2-yl)methyl)amino)methyl)pyrazin-2-yl)-2,2'-dimethyl-[1,1'-biphenyl]-3-yl)-4,5,6,7-tetrahydropyrazolo[1,5-a]pyridin-4-yl)pyrrolidine-3-carboxylic acid]	> 8.00
COc1nc(-c2cccc(-c3cccc(-c4cc5n(n4)CCCC5N4CCC(O)CC4)c3C)c2C)cnc1CNC[C@@H]1CCC(=O)N1 (stereo partly drawn) [Compound 166, (5S)-5-((((5-(3'-(4-(4-hydroxypiperidin-1-yl)-4,5,6,7-tetrahydropyrazolo[1,5-a]pyridin-2-yl)-2,2'-dimethyl-[1,1'-biphenyl]-3-yl)-3-methoxypyrazin-2-yl)methyl)amino)methyl)pyrrolidin-2-one]	7.00 to 8.00
COc1nc(-c2cccc(-c3cccc(-c4cc5n(n4)CCCC5N4CCC(C(=O)O)CC4)c3C)c2C)cnc1CNC[C@@H]1CCC(=O)N1 (stereo partly drawn) [Compound 167, 1-(2-(3'-(6-methoxy-5-(((((S)-5-oxopyrrolidin-2-yl)methyl)amino)methyl)pyrazin-2-yl)-2,2'-dimethyl-[1,1'-biphenyl]-3-yl)-4,5,6,7-tetrahydropyrazolo[1,5-a]pyridin-4-yl)piperidine-4-carboxylic acid]	7.00 to 8.00
COc1nc(-c2cccc(-c3cccc(-c4cc5n(n4)CCCC5NCCO)c3Cl)c2Cl)cnc1CNC[C@@H]1CCC(=O)N1 (stereo partly drawn) [Compound 168, (5S)-5-((((5-(2,2'-dichloro-3'-(4-((2-hydroxyethyl)amino)-4,5,6,7-tetrahydropyrazolo[1,5-a]pyridin-2-yl)-[1,1'-biphenyl]-3-yl)-3-methoxypyrazin-2-yl)methyl)amino)methyl)pyrrolidin-2-one]	> 8.00
COc1nc(-c2cccc(-c3cccc(-c4cc5n(n4)CCCC5NCC(=O)O)c3Cl)c2Cl)cnc1CNC[C@@H]1CCC(=O)N1 (stereo partly drawn) [Compound 169, 2-((2-(2,2'-dichloro-3'-(6-methoxy-5-(((((S)-5-oxopyrrolidin-2-yl)methyl)amino)methyl)pyrazin-2-yl)-[1,1'-biphenyl]-3-yl)-4,5,6,7-tetrahydropyrazolo[1,5-a]pyridin-4-yl)amino)acetic acid]	> 8.00
COc1nc(-c2cccc(-c3cccc(-c4cc5n(n4)CCCC5N4CC[C@@H](O)C4)c3Cl)c2Cl)cnc1CNC[C@@H]1CCC(=O)N1 (stereo partly drawn) [Compound 170, (5S)-5-((((5-(2,2'-dichloro-3'-(4-((R)-3-hydroxypyrrolidin-1-yl)-4,5,6,7-tetrahydropyrazolo[1,5-a]pyridin-2-yl)-[1,1'-biphenyl]-3-yl)-3-methoxypyrazin-2-yl)methyl)amino)methyl)pyrrolidin-2-one]	7.00 to 8.00
OCCNC1CCCn2nc(-c3cccc(-c4cccc(Nc5nccc6cc(CN7CC[C@@H](O)C7)cnc56)c4Cl)c3Cl)cc21 (stereo partly drawn) [Compound 180, (3R)-1-((8-((2,2'-dichloro-3'-(4-((2-hydroxyethyl)amino)-4,5,6,7-tetrahydropyrazolo[1,5-a]pyridin-2-yl)-[1,1'-biphenyl]-3-yl)amino)-1,7-naphthyridin-3-yl)methyl)pyrrolidin-3-ol]	> 8.00

Results, then the molecule that gave them:

pIC50	Compound
> 8.00	Cc1c(Nc2nccc3cc(CN4CC[C@@H](O)C4)cnc23)cccc1-c1cccc(-c2cc3n(n2)CCCC3NCCO)c1C (stereo partly drawn) [Compound 174, (3R)-1-((8-((3'-(4-((2-hydroxyethyl)amino)-4,5,6,7-tetrahydropyrazolo[1,5-a]pyridin-2-yl)-2,2'-dimethyl-[1,1'-biphenyl]-3-yl)amino)-1,7-naphthyridin-3-yl)methyl)pyrrolidin-3-ol]
> 8.00	CC(=O)NCCNC1CCCn2nc(-c3cccc(-c4cccc(Nc5nccc6cc(CN7CC[C@@H](O)C7)cnc56)c4C)c3C)cc21 (stereo partly drawn) [Compound 175, N-(2-((2-(3'-((3-(((R)-3-hydroxypyrrolidin-1-yl)methyl)-1,7-naphthyridin-8-yl)amino)-2,2'-dimethyl-[1,1'-biphenyl]-3-yl)-4,5,6,7-tetrahydropyrazolo[1,5-a]pyridin-4-yl)amino)ethyl)acetamide]
7.00 to 8.00	Cc1c(Nc2nccc3cc(CN4CC[C@@H](O)C4)cnc23)cccc1-c1cccc(-c2cc3n(n2)CCCC3NC[C@@H]2CCC(=O)N2)c1C (stereo partly drawn) [Compound 176, (5S)-5-(((2-(3'-((3-(((R)-3-hydroxypyrrolidin-1-yl)methyl)-1,7-naphthyridin-8-yl)amino)-2,2'-dimethyl-[1,1'-biphenyl]-3-yl)-4,5,6,7-tetrahydropyrazolo[1,5-a]pyridin-4-yl)amino)methyl)pyrrolidin-2-one]
> 8.00	Cc1c(Nc2nccc3cc(CN4CC[C@@H](O)C4)cnc23)cccc1-c1cccc(-c2cc3n(n2)CCCC3N2CC[C@@H](O)C2)c1C (stereo partly drawn) [Compound 177, (3R)-1-((8-((3'-(4-((R)-3-hydroxypyrrolidin-1-yl)-4,5,6,7-tetrahydropyrazolo[1,5-a]pyridin-2-yl)-2,2'-dimethyl-[1,1'-biphenyl]-3-yl)amino)-1,7-naphthyridin-3-yl)methyl)pyrrolidin-3-ol]
> 8.00	Cc1c(Nc2nccc3cc(CN4CC[C@@H](O)C4)cnc23)cccc1-c1cccc(-c2cc3n(n2)CCCC3N2CC[C@@H](C(=O)O)C2)c1C (stereo partly drawn) [Compound 178, (3R)-1-(2-(3'-((3-(((R)-3-hydroxypyrrolidin-1-yl)methyl)-1,7-naphthyridin-8-yl)amino)-2,2'-dimethyl-[1,1'-biphenyl]-3-yl)-4,5,6,7-tetrahydropyrazolo[1,5-a]pyridin-4-yl)pyrrolidine-3-carboxylic acid]
> 8.00	Cc1c(Nc2nccc3cc(CN4CC[C@@H](O)C4)cnc23)cccc1-c1cccc(-c2cc3n(n2)CCCC3NCC(=O)O)c1C (stereo partly drawn) [Compound 179, 2-((2-(3'-((3-(((R)-3-hydroxypyrrolidin-1-yl)methyl)-1,7-naphthyridin-8-yl)amino)-2,2'-dimethyl-[1,1'-biphenyl]-3-yl)-4,5,6,7-tetrahydropyrazolo[1,5-a]pyridin-4-yl)amino)acetic acid]
> 8.00	CC(=O)NCCNC1CCCn2nc(-c3cccc(-c4cccc(Nc5nccc6cc(CN7CC[C@@H](O)C7)cnc56)c4Cl)c3Cl)cc21 (stereo partly drawn) [Compound 181, N-(2-((2-(2,2'-dichloro-3'-((3-(((R)-3-hydroxypyrrolidin-1-yl)methyl)-1,7-naphthyridin-8-yl)amino)-[1,1'-biphenyl]-3-yl)-4,5,6,7-tetrahydropyrazolo[1,5-a]pyridin-4-yl)amino)ethyl)acetamide]
7.00 to 8.00	O=C1CC[C@@H](CNC2CCCn3nc(-c4cccc(-c5cccc(Nc6nccc7cc(CN8CC[C@@H](O)C8)cnc67)c5Cl)c4Cl)cc32)N1 (stereo partly drawn) [Compound 182, (5S)-5-(((2-(2,2'-dichloro-3'-((3-(((R)-3-hydroxypyrrolidin-1-yl)methyl)-1,7-naphthyridin-8-yl)amino)-[1,1'-biphenyl]-3-yl)-4,5,6,7-tetrahydropyrazolo[1,5-a]pyridin-4-yl)amino)methyl)pyrrolidin-2-one]
